The record followed here is patent publication US20070149588A1, “6-(2,3,6-Trifluorophenyl)triazolopyrimidines, their preparation and their use for controlling harmful fungi, and compositions comprising these compounds” (priority 2003, published 2007).

This assay relates to Botrytis cinerea. Put plainly: Activity against gray mold on bell-pepper leaves caused by Botrytis cinerea, protective application. The conditions noted are these: 250 ppm, protective spray on bell-pepper seedlings cv. Neusiedler Ideal Elite, inoculated next day, assessed visually after 5 days; untreated plants 90% infected. It counts as in vivo. The procedure:
The active compounds were prepared as a stock solution with 25 mg of active compound which was made up to 10 ml using a mixture of acetone and/or DMSO and the emulsifier Uniperol® EL (wetting agent having emulsifying and dispersing action based on ethoxylated alkylphenols) in a volume ratio of solvent/emulsifier of 99 to 1. The mixture was then made up with water to 100 ml. This stock solution was diluted with the solvent/emulsifier/water mixture described to the concentration of active compound stated below. Bell-pepper seedlings of the cultivar “Neusiedler Ideal Elite” were, after 2 to 3 leaves were well developed, sprayed to runoff point with an aqueous suspension having the concentration of active compound stated below. The next day, the treated plants inoculated with a spore suspension of Botrytis cinerea, which contained 1.7×10^6 spores/ml in a 2% aqueous biomalt solution. The test plants were then placed in a dark climatized chamber at 22 to 24° C. and high atmospheric humidity. After 5 days, the extent of the fungal infection on the leaves could be determined visually in %.
With `CC1CCCCN1c1c(-c2c(F)ccc(F)c2F)c(C#N)nc2ncnn12` (stereo not drawn) [I-1, 5-cyano-6-(2,3,6-trifluorophenyl)-7-(2-methylpiperidinyl)-1,2,4-triazolo[1,5a]pyrimidine], the “fungal infection on the leaves” value is “no infection”.

With `COc1nc2ncnn2c(NC2CCCC2)c1-c1c(F)ccc(F)c1F` [I-2, 5-methoxy-6-(2,3,6-trifluorophenyl)-7-cyclopentylamino-1,2,4-triazolo[1,5a]pyrimidine], the “fungal infection on the leaves” value is “no infection”.

Regarding `Cc1nc2ncnn2c(N2CCCCC2C)c1-c1c(F)ccc(F)c1F` (stereo not drawn) [I-3, 5-methyl-6-(2,3,6-trifluorophenyl)-7-(2-methylpiperidinyl)-1,2,4-triazolo[1,5a]pyrimidine], the “fungal infection on the leaves” value was “no infection”.
